# Assay results as given in patent US9624279B2, “Method for producing insoluble aggregate of neurodegenerative-disease-related protein” (TOKYO METROPOLITAN INSTITUTE OF MEDICAL SCIENCE, priority 2011, dated 2017).
# Test system: HA-TDP expressing cells
# Test: Suppression of insoluble TDP aggregate formation by candidate compounds (Western blot with anti-409/410 antibody, densitometer)
# Assay type: cell-based, human
# Conditions: 20 μM, ppt fraction after three days, compared with DMSO control as 100%; for suppressing effect against aggregate formation: added 6 hours after introduction of insoluble fraction from the brain of patient
# Procedure: Two transfectants of (1) SH-SY5Y cells expressing human α-synuclein (hereinafter referred to as “αS expressing cells” for transfectants and “αS” for the human α-synuclein, respectively) and (2) SH-SY5Y cells expressing HA-tagged TAR DNA binding protein (hereinafter referred to as “HA-TDP expressing cells” for the SH-SY5Y cells and an “HA-TDP” HA-tagged TAR DNA binding protein, respectively) were prepared. In brief, a construct in which a polynucleotide encoding αS or HA-TDP was inserted into pcDNA3 vector were prepared (Ueda. K et al., Proc. Natl. Acad. Sci. U.S.A. 90: 11282 (1993), Ou. S H et al., J Virol. 3584: 394 (1995)). Mixture of the construct (1 μg), X-tremeGENE 9 DNA transfection reagent (Roche Diagnostics K.K.) (3 μL) and the OptiMEM (100 μL) was added to 30% to 50% confluent of the SH-SY5Y cells and incubated over night, then used in the following step of introduction of insoluble fraction.
# An amount of sample for introduction per one well of the 6-well plate was added to the cell culture medium of one well, then the cultured cells was incubated for 6 hours. After the incubation, the medium was replaced with a flesh cell culture medium (2 mL) and the cultured cells were incubated for 3 days. Then, the cultured cells were used to perform the analysis by Western blotting and immunocytochemistry. If the cultured cells were not used immediately, the cultured cells were stored at −20° C.
# The precipitate obtained in the preparation of TX fraction was suspended in a cell lysis buffer containing 1% N-sodium lauroyl sarcosinate, and incubated at 37° C. for 30 min. After ultrasonication treatment using VP-5S type device (Titech Corporation), the supernatant and precipitate were separated by ultracentrifugation (290,000×g, 20 min, 4° C.), the supernatant was used as Tris buffer soluble fraction containing N-sodium lauroyl sarcosinate (hereinafter referred to as “Sar fraction”). And also, the precipitate was used as insoluble fraction (hereinafter referred to as “ppt fraction”).
# TS, TX, Sar and ppt fractions were used in the Western blotting by standard method well known to those skilled in the art. In brief, each fraction was separated by electrophoresis with 13.5% SDS-polyacrylamide gel, respectively. The separated proteins were transferred to a PVDF membrane, reacted with the following primary and secondary antibodies, and detected with an ECL Plus Western Blotting Detection System (GE Healthcare Japan Corporation) and an ImageQuant™ LAS 4000 mini (GE Healthcare Japan Corporation).
# The harvest of samples, preparation of insoluble fractions from the brain samples, preparation of sample for introduction including the insoluble fractions, cell culturing, preparation of transfectants, introduction of insoluble fractions into the cultured cells and Western blotting were performed in accordance with the procedures similar to those in the example 3. In this example, the candidate compounds of therapeutic agent of neurodegenerative disease were added at final concentration of 20 μM at 6 hours after introduction of insoluble fraction originated from the brain of patient into HA-TDP expressing cells. […] In three days after the introduction of insoluble fraction from the brain of patient, the ppt fraction of HA-TDP expressing cells was recovered and used in Western blotting, and the amounts of the insoluble fractions were quantified with a densitometer. […]
Compound,suppressing effect against aggregate formation,aggregate formation suppressed
"O=C(O[C@@H]1Cc2c(O)cc(O)cc2O[C@@H]1c1ccc(O)c(O)c1)c1cc(O)c(O)c(O)c1 [epicatechin gallate, (−)-epicatechin gallate]",had the suppressing effect,
O=c1c(O)c(-c2ccc(O)c(O)c2)oc2c(O)c(O)cc(O)c12 [gossypetin],had the suppressing effect,approximately 40%
O=c1c(O)c(-c2cc(O)c(O)c(O)c2)oc2cc(O)cc(O)c12 [myricetin],had the suppressing effect,
O=C(c1cc(O)c(O)c(O)c1)c1ccc(O)c(O)c1O [exifone],did not have a suppressing effect,
